From ChEMBL document CHEMBL1153245, “A profile of the in vitro anti-tumor activity of imidazolium-based ionic liquids” (2010)

Legend:
Assay type in all cases: functional
HL-60(TB) = test: Anticancer activity against human HL-60(TB) cells after 48 hrs by sulforhodamine B assay; details: for CC50: read-out: LC50 (the source's name)
K562 = test: Anticancer activity against human K562 cells after 48 hrs by sulforhodamine B assay
MOLT-4 = test: Anticancer activity against human MOLT4 cells after 48 hrs by sulforhodamine B assay
[1] = Anticancer activity against human […] cells after 48 hrs by sulforhodamine B assay; details: for CC50: read-out: LC50 (the source's name)
SR = test: Anticancer activity against human SR cells after 48 hrs by sulforhodamine B assay; details: for CC50: read-out: LC50 (the source's name)
A549 = test: Anticancer activity against human A549 cells after 48 hrs by sulforhodamine B assay
HOP-92 = test: Anticancer activity against human HOP92 cells after 48 hrs by sulforhodamine B assay; details: for CC50: read-out: LC50 (the source's name)
NCI-H23 = test: Anticancer activity against human NCI-H23 cells after 48 hrs by sulforhodamine B assay; details: for CC50: read-out: LC50 (the source's name)
NCI-H322M = test: Anticancer activity against human NCI-H322M cells after 48 hrs by sulforhodamine B assay
COLO 205 = test: Anticancer activity against human COLO205 cells after 48 hrs by sulforhodamine B assay
HCC 2998 = test: Anticancer activity against human HCC2998 cells after 48 hrs by sulforhodamine B assay; details: for CC50: read-out: LC50 (the source's name)
HCT-116 = test: Anticancer activity against human HCT116 cells after 48 hrs by sulforhodamine B assay
HCT-15 = test: Anticancer activity against human HCT15 cells after 48 hrs by sulforhodamine B assay; details: for CC50: read-out: LC50 (the source's name)
HT-29 = test: Anticancer activity against human HT-29 cells after 48 hrs by sulforhodamine B assay; details: for CC50: read-out: LC50 (the source's name)
KM12 = test: Anticancer activity against human KM12 cells after 48 hrs by sulforhodamine B assay; details: for CC50: read-out: LC50 (the source's name)
U-251 = test: Anticancer activity against human U251 cells after 48 hrs by sulforhodamine B assay; details: for CC50: read-out: LC50 (the source's name)
Malme-3M = test: Anticancer activity against human MALME-3M cells after 48 hrs by sulforhodamine B assay
M14 = test: Anticancer activity against human M14 cells after 48 hrs by sulforhodamine B assay
SK-MEL-28 = test: Anticancer activity against human SK-MEL-28 cells after 48 hrs by sulforhodamine B assay
IGROV-1 = test: Anticancer activity against human IGROV1 cells after 48 hrs by sulforhodamine B assay; details: IGROV-1, 48 h
OVCAR-5 = test: Anticancer activity against human OVCAR5 cells after 48 hrs by sulforhodamine B assay; details: for CC50: read-out: LC50 (the source's name)
OVCAR-8 = test: Anticancer activity against human OVCAR8 cells after 48 hrs by sulforhodamine B assay
SK-OV-3 = test: Anticancer activity against human SKOV3 cells after 48 hrs by sulforhodamine B assay; details: for CC50: read-out: LC50 (the source's name)
ACHN = test: Anticancer activity against human ACHN cells after 48 hrs by sulforhodamine B assay
RXF 393 = test: Anticancer activity against human RXF393 cells after 48 hrs by sulforhodamine B assay
SN12C = test: Anticancer activity against human SN12C cells after 48 hrs by sulforhodamine B assay
TK-10 = test: Anticancer activity against human TK10 cells after 48 hrs by sulforhodamine B assay
MCF7 = test: Anticancer activity against human MCF7 cells after 48 hrs by sulforhodamine B assay
MDA-MB-435 = test: Anticancer activity against human MDA-MB-435 cells after 48 hrs by sulforhodamine B assay; details: for CC50: read-out: LC50 (the source's name)
BT-549 = test: Anticancer activity against human BT549 cells after 48 hrs by sulforhodamine B assay; details: for CC50: read-out: LC50 (the source's name)
MDA-MB-468 = test: Anticancer activity against human MDA-MB-468 cells after 48 hrs by sulforhodamine B assay

CCCCCCCCCCCCCCCCCC[n+]1ccn(C)c1.[Cl-]
GI50 (HL-60(TB); Homo sapiens, HL-60, 48 h): 143 nM | CC50 (HL-60(TB)): 791 nM | GI50 (K562): 385 nM | CC50 (K562; Homo sapiens, K562, 48 h, read-out: LC50 (the source's name)): > 100000 nM | GI50 (MOLT-4): 189 nM | LC50 (MOLT-4): 2160 nM | GI50 ([1]; Homo sapiens, RPMI8266, 48 h): 27 nM | CC50 ([1]; Homo sapiens, RPMI8266, 48 h): 1210 nM | GI50 (SR): 154 nM | CC50 (SR): 3790 nM | GI50 (A549; Homo sapiens, A549, 48 h): 639 nM | LC50 (concentration killing 50% of cells) (A549; Homo sapiens, A549, 48 h): 10000 nM | GI50 (HOP-92; Homo sapiens, HOP-92, 48 h): 1140 nM | CC50 (HOP-92; Homo sapiens, HOP-92, 48 h): 6850 nM | GI50 (NCI-H23; Homo sapiens, NCI-H23, 48 h): 392 nM | CC50 (NCI-H23; Homo sapiens, NCI-H23, 48 h): 7720 nM | LC50 (NCI-H322M): 5950 nM | GI50 (NCI-H322M; Homo sapiens, NCI-H322M, 48 h): 1300 nM | GI50 (COLO 205; Homo sapiens, COLO 205, 48 h): 285 nM | CC50 (COLO 205; Homo sapiens, COLO 205, 48 h, read-out: LC50 (the source's name)): > 100000 nM | GI50 (HCC 2998; Homo sapiens, HCC 2998, 48 h): 296 nM | CC50 (HCC 2998; Homo sapiens, HCC 2998, 48 h): 7770 nM | GI50 (HCT-116; Homo sapiens, HCT-116, 48 h): 343 nM | CC50 (HCT-116; Homo sapiens, HCT-116, 48 h, read-out: LC50 (the source's name)): > 100000 nM | GI50 (HCT-15): 461 nM | CC50 (HCT-15; Homo sapiens, HCT-15, 48 h): 4110 nM | GI50 (HT-29; Homo sapiens, HT-29, 48 h): 315 nM | CC50 (HT-29): 5520 nM | GI50 (KM12; Homo sapiens, KM12, 48 h): 275 nM | CC50 (KM12; Homo sapiens, KM12, 48 h): 2960 nM | GI50 (U-251; Homo sapiens, U-251, 48 h): 372 nM | CC50 (U-251; Homo sapiens, U-251, 48 h): 3880 nM | GI50 (Malme-3M): 368 nM | LC50 (concentration killing 50% of cells) (Malme-3M; Homo sapiens, Malme-3M, 48 h): 5820 nM | GI50 (M14; Homo sapiens, M14, 48 h): 330 nM | LC50 (50% lethal concentration) (M14; Homo sapiens, M14, 48 h): 6630 nM | GI50 (SK-MEL-28; Homo sapiens, SK-MEL-28, 48 h): 879 nM | LC50 (SK-MEL-28; Homo sapiens, SK-MEL-28, 48 h): 5750 nM | GI50 (IGROV-1): 175 nM | CC50 (IGROV-1; read-out: LC50 (the source's name)): > 100000 nM | GI50 (OVCAR-5; Homo sapiens, OVCAR-5, 48 h): 819 nM | CC50 (OVCAR-5; Homo sapiens, OVCAR-5, 48 h): 7890 nM | GI50 (OVCAR-8; Homo sapiens, OVCAR-8, 48 h): 998 nM | LC50 (OVCAR-8; Homo sapiens, OVCAR-8, 48 h): 7400 nM | GI50 (SK-OV-3; Homo sapiens, SK-OV-3, 48 h): 1240 nM | CC50 (SK-OV-3): > 100000 nM | GI50 (ACHN): 446 nM | LC50 (ACHN; Homo sapiens, ACHN, 48 h): 4230 nM | GI50 (RXF 393; Homo sapiens, RXF 393, 48 h): 265 nM | LC50 (RXF 393; Homo sapiens, RXF 393, 48 h): 4900 nM | GI50 (SN12C; Homo sapiens, SN12C, 48 h): 679 nM | LC50 (SN12C; Homo sapiens, SN12C, 48 h): 4770 nM | GI50 (TK-10; Homo sapiens, TK-10, 48 h): 244 nM | LC50 (TK-10; Homo sapiens, TK-10, 48 h): 2770 nM | GI50 (MCF7): 356 nM | LC50 (50% cell kill) (MCF7; Homo sapiens, MCF7, 48 h): 3780 nM | GI50 (MDA-MB-435; Homo sapiens, MDA-MB-435, 48 h): 684 nM | CC50 (MDA-MB-435; Homo sapiens, MDA-MB-435, 48 h): 7960 nM | GI50 (BT-549): 557 nM | CC50 (BT-549; Homo sapiens, BT-549, 48 h): 5330 nM | GI50 (MDA-MB-468): 66 nM | LC50 (MDA-MB-468; Homo sapiens, MDA-MB-468, 48 h): 7250 nM

CCCCCCCCCCCCCCCCCC[n+]1ccn(C)c1.F[P-](F)(F)(F)(F)F
GI50 (HL-60(TB)): 185 nM | CC50 (HL-60(TB)): > 100000 nM | GI50 (K562): 935 nM | GI50 (MOLT-4): 589 nM | LC50 (MOLT-4): > 100000 nM | GI50 [1]: 17 nM | CC50 [1]: 811 nM | GI50 (SR): 1850 nM | CC50 (SR): > 100000 nM | LC50 (concentration killing 50% of cells) (A549): 9370 nM | GI50 (HOP-92): 927 nM | CC50 (HOP-92): 6680 nM | GI50 (NCI-H23): 424 nM | CC50 (NCI-H23): 7980 nM | GI50 (NCI-H322M): 1610 nM | LC50 (NCI-H322M): > 100000 nM | GI50 (COLO 205): 389 nM | GI50 (HCC 2998): 293 nM | CC50 (HCC 2998): 5860 nM | GI50 (HCT-116): 411 nM | GI50 (HCT-15): 1010 nM | CC50 (HCT-15): 4660 nM | GI50 (HT-29): 408 nM | CC50 (HT-29): > 100000 nM | GI50 (KM12): 471 nM | CC50 (KM12): 4000 nM | GI50 (U-251): 482 nM | CC50 (U-251): 4200 nM | GI50 (Malme-3M): 1020 nM | LC50 (concentration killing 50% of cells) (Malme-3M): 7690 nM | GI50 (M14): 424 nM | LC50 (50% lethal concentration) (M14): 6250 nM | LC50 (SK-MEL-28): 5160 nM | GI50 (OVCAR-5): 1080 nM | CC50 (OVCAR-5): 7240 nM | GI50 (OVCAR-8): 1300 nM | LC50 (OVCAR-8): 9800 nM | GI50 (SK-OV-3): 1810 nM | CC50 (SK-OV-3): 4200 nM | GI50 (ACHN): 934 nM | LC50 (ACHN): 4620 nM | GI50 (RXF 393): 467 nM | LC50 (RXF 393): 5980 nM | GI50 (SN12C): 1200 nM | LC50 (SN12C): 5280 nM | GI50 (TK-10): 463 nM | LC50 (TK-10): 4760 nM | GI50 (MCF7): 728 nM | LC50 (50% cell kill) (MCF7): 4500 nM | GI50 (MDA-MB-435): 851 nM | CC50 (MDA-MB-435): 6640 nM | GI50 (BT-549): 1290 nM | CC50 (BT-549): 6910 nM | GI50 (MDA-MB-468): 159 nM | LC50 (MDA-MB-468): 5110 nM
